Structures can show the parent of a compound that is named as a salt.

For data set [1] the following is noted: cited from earlier work.
The conditions of data set [2]: in vivo; cited from earlier work.
Data set [3] has as its system IMR90 ER:RAS cells. As to the kind of experiment: Senolytic activity in IMR90 ER:RAS cells undergoing oncogene-induced senescence (4OHT) vs DMSO-treated non-senescent cells. To be noted: for death of cells undergoing oncogene induced senescence: 100 nM 4OHT, treated 6 days after induction at indicated concentrations, FIG. 18; for ability of FAK inhibitors to kill differentially senescent cells (4OHT induced) vs non-senescent cells (DMSO treated): FIG. 12; for senolytic properties: selective reduction of senescent (+4OHT) vs normal (−4OHT) cell numbers: 10 μM added 6 days after 100 nM 4OHT, cell numbers 4 days after (DAPI or crystal violet), FIG. 1, FIG. 10.
Description: FIG. 1: (A) IMR90 ER:RAS cells were induced to undergo senescence by treating them with 100 nM 4OHT for 6 days. At that point, 10 μM of the indicated drugs was added. In parallel, the same treatments were carried out in IMR90 ER:RAS cells treated with DMSO (−4OHT). […] Cells were fixed at day 6, 8 and 10 after 4OHT induction and stained with crystal violet to assess cell viability. T, Tyr-AG879; P, PF-573228; C, Cyclosporine. (B) A similar experiment to (A) was conducted and cells at day 10 post-induction were fixed and stained with DAPI to assess cell numbers
In the setup used, IMR90 ER:RAS cells were treated with 100 nM 4OHT to induce OIS (oncogene induced senescence) and activate the ER:RAS fusion protein. 6 days after 4OHT induction (+4OHT), once cells were fully senescent, the agents to be tested were added at a concentration of 10 μM, and cell numbers were assessed 4 days after by DAPI stained couple to automated microscopy. Alternatively, cells were fixed and stained with crystal violet. In parallel, the same treatments were carried out in IMR90 ER:RAS cells treated with DMSO (−4OHT).
IMR90 ER:RAS cells were induced to undergo senescence by treating them with 100 nM 4OHT for 6 days. At that point, 10 μM of the indicated drugs was added. In parallel, the same treatments were carried out in IMR90 ER:RAS cells treated with DMSO (−4OHT). […] Cells were fixed at day 6, 8 and 10 after 4OHT induction and stained with crystal violet to assess cell viability. A similar experiment was conducted and cells at day 10 post-induction were fixed and stained with DAPI to assess cell numbers (see FIG. 1).

In data set [4] the test system is IMR90 cells undergoing OIS. Put plainly: Western blot of cleaved caspase 3 in IMR90 cells undergoing OIS. Type of data set: cell-based, human. To be noted: FIG. 17. The text has this: Western blot showing cleaved caspase 3 upon treatment of IMR90 cells undergoing OIS with cardiac glycosides.
Data set [5] relates to IMR90 Cherry and IMR90 ER:RAS GFP cells. Put plainly: Mixed cultures of normal (IMR90 Cherry) and senescent (IMR90 ER:RAS GFP) cells. Type of data set: cell-based, human. To be noted: IMR90 Cherry mixed with IMR90 ER:RAS GFP, 4OHT; FIG. 14. An excerpt:
FIG. 14: Senolytic agents JFD 00244 and Rottlerin specifically eliminate senescent cells in mixed cultures containing normal and senescent cells. (A) Setup of the experiments, in which normal cells (IMR90 Cherry) are mixed with IMR90 ER:RAS GFP cells (which become senescent in the presence of 4OHT). (B) Representative pictures showing the mixed cultures treated with the indicated drugs. In the bottom row, upon 4OHT the IMR90 ER:RAS GFP cells are senescent. (C) Quantification of the IMR90 Cherry (left bar) and IMR90 ER:RAS GFP (right bar) in the mixed cultures.
The above experiments were all performed comparing the effects of the drugs in cultures of normal and senescent cells. To understand whether the drugs selectively kill senescent cells from a mixed culture, experiments were conducted using Cherry-labelled normal IMR90 cells and GFP labelled IMR90 ER:RAS cells that could be induced to undergo senescence upon treatment with 4OHT (FIG. 14A).
Compounds JFD 00244 and Rottlerin specifically eliminate senescent cells in mixed cultures containing normal and senescent cells (see FIG. 14). (A) Setup of the experiments, in which normal cells (IMR90 Cherry) are mixed with IMR90 ER:RAS GFP cells (which become senescence in the presence of 4OHT). […] (C) Quantification of the IMR90 Cherry and IMR90 ER:RAS GFP in the mixed cultures.

Data set [6] has as its system senescent cells in the lung. Put plainly: Elimination of senescent cells induced by whole body irradiation in mice. Type of data set: in vivo. To be noted: 6 Gray whole body irradiation; 2 months later treated for 4 consecutive days; FIG. 16. An excerpt:
(A) Experimental set up, mice (n=5 per group) were irradiated with 6 Gray to induce senescence. […] (B) Cryosections of lungs obtained from control and irradiated mice were stained with hematoxilin and eosin (to reveal tissue architecture), and SA-β-Gal (to reveal senescent cells). Senescent cells accumulate in the bronchioles of irradiated mice. (C) Quantification of the lung area positive for SA-β-Gal staining. […] (D). Representative pictures of lung cryosections.
Whole-body irradiation is known to cause senescence. In irradiated mice, senescent cells accumulate in different tissues, including the lung (Chang et al., 2016; Yosef et al., 2016).

Data set [7] has as its system Nras^G12V-positive senescent hepatocytes. Put plainly: Model of liver cancer initiation (NrasG12V hydrodynamic tail vein injection). Type of data set: in vivo. To be noted: CB17 SCID/beige mice, 1 mg/kg ip for 3 days from day 5, livers day 9. An excerpt:
(A) CB17 SCID/beige mice immunosuppressed mice were subjected to hydrodynamic tail vein injection to express NrasG12V on the liver and induce oncogene-induced senescence on hepatocytes as described in Kang et al (Nature 2011, PMID: 22080947).

The subject of data set [8] is senescent cells in the lung. As to the kind of experiment: Elimination of senescent cells induced by Doxorubicin treatment in mice. Type of data set: in vivo. To be noted: single dose 10 mg/kg Doxorubicin; 2 months later treated for 4 consecutive days; FIG. 15. The protocol: (A) Experimental set up, mice (n=5 per group) were administered with a single dose of 10 mg/kg of Doxorubicin. […] (B) Cryosections of lungs obtained from control and doxorubicin treated mice were stained with hematoxilin and eosin (to reveal tissue architecture), and SA-β-Gal (to reveal senescent cells). Senescent cells accumulate in the bronchioles of doxorubicin-treated mice. (C) Quantification of the lung area positive for SA-β-Gal staining. […] (D) Representative pictures of lung cryosections.
Further experiments investigated whether the senolytic agents were capable of eliminating senescent cells in vivo. […] These senescent cells are responsible for some of the side-effects associated with chemotherapy and can fuel the growth of cancerous cells (Demaria et al., 2016). […] Doxorubicin treatment induces senescence in the lung.

In another data set the test system is old mice. As to the kind of experiment: Intermittent ouabain treatment of old mice (ageing experiment). Type of data set: in vivo. The procedure: (A) 24 month old female mice were subjected to the schedule summarized in this panel. […] (B) Results of rotarod test that assess the physical fitness and coordination of mice. Left bar=saline, right bar=Ouabain.
The concentrations of Albumin (A), Amylase (B) and PHOS (C) on plasma were measured in mice from the aging experiment described in FIG. 21A. 90 days old female mice were included as a comparison (young).

Data set [9] deals with IMR90 ER:RAS cells. As to the kind of experiment: Senolysis in presence or absence of pan-caspase inhibitor QVD (apoptosis). Type of data set: cell-based, human. To be noted: 2 or 3 days treatment, with or without QVD; FIG. 13. The procedure:
FIG. 13: Several of the senolytic agents kill senescent cells by inducing apoptosis. […] Consequently cells were treated with DMSO, ABT-263 or the indicated senolytics for 2 (A) or 3 days (B) in the presence (right bar) or absence (left bar) of the pan-caspase inhibitor QVD. Treatment of senescent cells with senolytics kills them, but is prevented in the case of PF-573228, rottlerin and rotenone by pre-treatment with the pan-caspase inhibitor QVD. ABT, ABT-263; PF, PF-573228; JFD, JFD 00244; DPI, diphenyleneiodonium.
Experiments were conducted to investigate the mechanism by which the senolytics caused the elimination of senescent cells using a pan-caspase inhibitor (QVD).
Several of the agents described herein kill senescent cells by inducing apoptosis. […] Consequently, cells were treated with DMSO, ABT-263 or the indicated senolytics for 2 (A) or 3 days (B) in the presence or absence of the pan-caspase inhibitor QVD. Treatment of senescent cells with senolytics kills them, but is prevented in the case of PF-573228, rottlerin and rotenone by pre-treatment with the pan-caspase inhibitor QVD (see FIG. 13).

For `CN(C)CC[C@H](CSc1ccccc1)Nc1ccc(S(=O)(=O)NC(=O)c2ccc(N3CCN(Cc4ccccc4-c4ccc(Cl)cc4)CC3)cc2)cc1[N+](=O)[O-]` [ABT-737], in data set [1], the solubility result was “low”. The oral bioavailability entry in data set [2] is listed as “low”.
`CC(C)c1c(C(=O)Nc2ccccc2)c(-c2ccccc2)c(-c2ccc(F)cc2)n1CC[C@@H](O)C[C@@H](O)CC(=O)O` [Atorvastatin calcium]: the “senolytic effect of statins, preferential killing of cells undergoing OIS” value with IMR90 ER:RAS cells [3] (4OHT vs DMSO, FIG. 11) is recorded as “behaves as a senolytic in concentration dependent manner”.
As to `C[C@]12CC[C@H](O)C[C@H]1CC[C@@H]1[C@@H]2CC[C@]2(C)[C@@H](c3ccc(=O)oc3)CC[C@]12O` [Bufalin, (3β,5β)-3,14-Dihydroxybufa-20,22-dienolide], in the data set with IMR90 ER:RAS cells [3], the “death of cells undergoing oncogene induced senescence” value (shortened to “death”) is on record as “dose-dependent death of cells undergoing oncogene induced senescence”.
On to `CNC(=O)c1ccc(Nc2ncc(C(F)(F)F)c(NCc3nccnc3N(C)S(C)(=O)=O)n2)cc1` [Defactinib], for which, in the data set with IMR90 ER:RAS cells [3], the “ability of FAK inhibitors to kill differentially senescent cells (4OHT induced) vs non-senescent cells (DMSO treated)” value is on record as “preferentially kill senescent cells in a dose-dependent manner”.
`C[C@H]1O[C@@H](O[C@H]2[C@@H](O)C[C@H](O[C@H]3[C@@H](O)C[C@H](O[C@H]4CC[C@@]5(C)[C@H](CC[C@@H]6[C@@H]5C[C@@H](O)[C@]5(C)[C@@H](C7=CC(=O)OC7)CC[C@]65O)C4)O[C@@H]3C)O[C@@H]2C)C[C@H](O)[C@@H]1O` [Digoxin]: the “cleaved caspase 3 (apoptosis in senescent cells)” value in data set [4] was “induces apoptosis in senescent cells”. In addition, the “death” value with IMR90 ER:RAS cells [3] is on record as “dose-dependent death of cells undergoing oncogene induced senescence”.
Regarding `O=C1c2ccccc2C(=O)c2c(NCCc3ccc(O)cc3)ccc(NCCc3ccc(O)cc3)c21` [JFD00244, 1,4-Bis[(p-hydroxy-phenethyl)amino]-anthraquinone], the “selective elimination of senescent cells from mixed cultures” value in [5] is on record as “selective elimination of senescent cells from the co-cultures”.
Consider `Nc1cc(N)c(N)cc1N` [NSC 677249, 1,2,4,5- Benzenetetramine tetrahydrochloride], for which the “ability of FAK inhibitors to kill differentially senescent cells (4OHT induced) vs non-senescent cells (DMSO treated)” value in the data set with IMR90 ER:RAS cells [3] was “preferentially kill senescent cells in a dose-dependent manner”.
With `C[C@@H]1O[C@@H](O[C@H]2C[C@@H](O)[C@]3(CO)[C@H]4[C@H](O)C[C@]5(C)[C@@H](C6=CC(=O)OC6)CC[C@]5(O)[C@@H]4CC[C@]3(O)C2)[C@H](O)[C@H](O)[C@H]1O` [Ouabain], the “lung area positive for SA-β-Gal staining (senescent cells)” value in data set [6] and in data set [8] was “partially eliminated” throughout. In data set [4], the “cleaved caspase 3 (apoptosis in senescent cells)” value is given as “induces apoptosis in senescent cells”. The “death” value with IMR90 ER:RAS cells [3] is listed as “dose-dependent death of cells undergoing oncogene induced senescence”. Moreover, in the data set on IMR90 ER:RAS cells [3] (with KCl, FIG. 20A), the “senolytic activity on adding KCl (increased intracellular K+)” value is recorded as “prevented by increasing the intracellular K^+ concentration by adding KCl”. In addition, the “senolytic activity on inhibition of p38” value in the data set on IMR90 ER:RAS cells [3] (with p38 inhibition, FIG. 20B) is on record as “partially prevents the senolytic properties of ouabain”. The “SA-b-gal activity in liver” value in [7] (FIG. 25B) was “reduced”. The p21-positive cells entry in [7] (FIG. 25C) is listed as “reduced”. Further, the Nras-positive preneoplastic hepatocytes result in data set [7] (FIG. 25D) was “reduced”. Besides, the “rotarod test (physical fitness and coordination)” value with old mice (24 month old female mice, 1 mg/kg ip, 3 consecutive days on treatment weeks, FIG. 21) is listed as “improves the physical fitness of old mice”. In the data set with old mice (old mice of FIG. 21A vs young (90 days old), FIG. 22), the “concentrations of Albumin, Amylase and PHOS on plasma” value is “reverts ageing-associated changes of metabolites in blood”. The “SA-β-Gal positive cells in the liver” value in the data set with old mice (old mice, FIG. 24) is listed as “decreased senescence-associated β-galactosidase positive cells in the liver”. Moreover, in the data set with old mice (qRT-PCR, liver, kidney and muscle of old female mice, FIG. 23), the “expression of Cdkn2a mRNA (p16Ink4a)” value is listed as “can be reduced after ouabain treatment”.
As for `CS(=O)(=O)c1cccc(CNc2nc(Nc3ccc4c(c3)CCC(=O)N4)ncc2C(F)(F)F)c1` [PF-573228, 6-[4-(3-methyane-sulfonyl-benzyl-amino)-5-trifluoro-methyl-pyrimidin-2-ylamino]-3,4-dihydro-1H-quinolin-2-one], the “elimination of senescent cells with pan-caspase inhibitor QVD (apoptosis induction)” value in the data set with IMR90 ER:RAS cells [9] is on record as “selectively induce apoptosis of senescent cells”. Further, in the data set with IMR90 ER:RAS cells [3], the “senolytic properties: selective reduction of senescent (+4OHT) vs normal (−4OHT) cell numbers” value is “showed the most promising senolytic properties” and the “ability of FAK inhibitors to kill differentially senescent cells (4OHT induced) vs non-senescent cells (DMSO treated)” value was “preferentially kill senescent cells in a dose-dependent manner”.
Regarding `C=C(C)[C@H]1Cc2c(ccc3c2O[C@@H]2COc4cc(OC)c(OC)cc4[C@@H]2C3=O)O1` [Rotenone, (2R,6aS,12aS)-1,2,6,6a,12,12a-hexahydro-2-isopropenyl-8,9-dimethoxychromeno[3,4-b]furo(2,3-h)chromen-6-one], in the data set on IMR90 ER:RAS cells [9], the “elimination of senescent cells with pan-caspase inhibitor QVD (apoptosis induction)” value is “selectively induce apoptosis of senescent cells”.
Turning to `CC(=O)c1c(O)c(C)c(O)c(Cc2c(O)c3c(c(C(=O)/C=C/c4ccccc4)c2O)OC(C)(C)C=C3)c1O` [Rottlerin], the “elimination of senescent cells with pan-caspase inhibitor QVD (apoptosis induction)” value in the data set with IMR90 ER:RAS cells [9] is reported as “selectively induce apoptosis of senescent cells”. Also, in [5], the “selective elimination of senescent cells from mixed cultures” value is “selective elimination of senescent cells from the co-cultures”.
Regarding `CC(C)(C)c1cc(/C=C(\C#N)C(N)=S)cc(C(C)(C)C)c1O` [Tyrphostin AG879, (2E)-3-[3,5-Bis(1,1-dimethylethyl)-4-hydroxyphenyl]-2-cyano-2-propenethioamide], the “senolytic properties: selective reduction of senescent (+4OHT) vs normal (−4OHT) cell numbers” value in the data set with IMR90 ER:RAS cells [3] is reported as “showed the most promising senolytic properties”.
On the same count and under the same terms, then Cyclosporine, with “showed the most promising senolytic properties”.
